Laboratory results reported in patent US10561658B2, “Thieno- and pyrrolopyrimidine analogues as anticancer agents and methods of use thereof” (UNIVERSITY OF MARYLAND, BALTIMORE COUNTY, priority 2015, dated 2020).
Converted amounts (≈) assume the structure as drawn.

Key:
[1] = tested on: Escherichia coli ATCC 25922; assay: Antimicrobial growth inhibition, E. coli; assay type: cell-based; conditions: ATCC25922; Escherichia coli ATCC 25922, 100 μM
Experimental: (§1) Evaluation of antimicrobial activity in vitro. Compounds were tested against the following panel of bacteria and fungi purchased from the American Type Culture Collection (ATCC). Briefly, bacteria were grown to mid-log phase, diluted with fresh medium to an optical density at 600 nm (OD600) of 0.030-0.060 and then diluted again 1:10. This suspension (195 μL) was added to wells in a 96 well microtiter plate (Sarstedt) and 5 μL of compound dissolved in DMSO was added to give a final concentration of 100-0.1 μM at 2.5% DMSO by volume. A DMSO negative control and standard antibiotic positive controls were included in each plate. All compounds were tested in triplicate for each concentration. Plates were sealed with parafilm, placed in a Ziploc bag to prevent evaporation, and incubated at 30° C. (fungi) or 37° C. (bacteria) for 16-20 hours (48 hours for C. neoformans). The OD600 values for each well were determined with a plate reader (Biotek, EL800) and the data were standardized to the DMSO control wells after subtracting the background from blank medium. Initial single concentrations were tested at 100 μM and active compounds were further tested with at least nine concentrations for a full dose response. Dose response curves were generated using GraphPad Prism 5 software and used to determine the MIC95 concentrations (minimal concentration that inhibits 95% of growth). Compounds 1, 2, 5 and 19 were screened for growth inhibition activity against a panel of bacteria and fungi at a concentration of 100 as shown in Table 2. Compound 5 was included to test the importance of the C4-Cl substituent for activity across a broader range of biological systems.

[2] = tested on: Bacillus subtilis ATCC 6633; assay: Antimicrobial growth inhibition, B. subtilis; assay type: cell-based; conditions: ATCC6633; Bacillus subtilis ATCC 6633, 100 μM
Experimental: as §1

[3] = tested on: Staphylococcus aureus subsp. aureus (MRSA) ATCC 43300; assay: Antimicrobial growth inhibition, S. aureus (MRSA); assay type: cell-based; conditions: Staphylococcus aureus (MRSA) ATCC 43300, 100 μM
Experimental: as §1

Cryptococcus neoformans = assay: Antifungal growth inhibition and MIC95, C. neoformans strains; assay type: cell-based
Experimental: as §1
Compounds 1 and 2 were further tested against the susceptible fungal strains to determine the MIC95 values.

MDA-MB-231 cells = assay: Cell cycle distribution (propidium iodide, flow cytometry), MDA-MB-231; assay type: cell-based, human
Experimental: Cell cycle distributions of MDA-MB-231 cells after 48 hours in the presence of equitoxic (IC80) doses of (a) compound 1 (15 μM) or (b) compound 2 (8 μM) analyzed by flow cytometry of fixed, propidium iodide-stained cells and compared to vehicle controls (DMSO). A minimum of 3000 cells were analyzed per cell population. Each bar represents the mean±SD across 4 independent cell samples.
Cell-cycle and apoptosis studies were conducted in MDA-MB-231 cells. Cell-cycle analysis of compound 19 at 15 μM concentration lead to arrest of 60% cells in G2/M stage. Similarly, at 1.75 μM concentration, compound 20 arrested 30% of cells in G2/M stage. […] To evaluate the possible mechanism for arrest of cell proliferation, cell-cycle distribution was measured using propidium iodide staining and flow cytometry. […] There are several possibilities that could account for this, including: (i) that cell lysis occurs rapidly following induction of apoptosis, preventing significant accumulation of annexin V-positive bodies, or (ii) that a distinct cell death pathway is triggered by compound 19.
Human metastatic breast cancer MDA-MB-231 cells were obtained from the American Type Culture Collection (ATCC) (Rockville, Md.) and maintained in Dulbecco's Modified Eagle's Medium (DMEM) containing 10% fetal bovine serum (FBS) without antibiotics at 37° C. in a humidified, CO2-controlled incubator. The cytotoxicity of compounds 1 and 2 was assessed by reduction of 3-(4, 5-dimethylthiazol-2-yl)-2,5-diphenyltetrazolium bromide (MTT). MDA-MB-231 cells were seeded in 96-well plates at 5×10^3 cells per well and treated with a range of drug concentrations. After 48 hours, cell viability was measured using the MTT Cell Proliferation Assay kit (ATCC) according to the manufacturer's instructions. Percent cell viability was plotted as a function of drug concentrations and analyzed using a sigmoidal dose response function with PRISM v3.03 software (GraphPad) to resolve drug concentrations yielding 50% cell death (IC50). The cell cycle distributions of MDA-MB-231 cells treated with compounds 1 or 2 were analyzed using propidium iodide staining and flow cytometry. 2×10^6 cells were seeded in 100 mm dishes and treated with compounds 1 or 2 at the IC80 values determined by cell viability assays or an equivalent volume of DMSO. 48 h following treatment the cells were collected, fixed, and stained with propidium iodide (Sigma Aldrich) immediately before analysis by flow cytometry.
As shown in Example 11, compounds 1 and 2 both induced apoptosis but involving a mechanism independent of cell cycle arrest. To test whether the toxicity of these agents for MDA-MB-231 cells proceeded via a similar pathway, their effects were monitored on cell cycle distributions using propidium iodide staining and flow cytometry. […]

[4] = tested on: NCI-60 human tumor cell lines; assay: NCI60 human tumor cell line screen; assay type: cell-based; conditions: NCI60, FIG. 4
Experimental: Lead compounds 1, 2 and 19 were evaluated for anti-cancer activity at nM to uM concentrations in cellular screens.
The lead halogenated pyrrolopyrimidines and thienopyrimidines of the present invention were tested in the human cell line screen which is composed of 60 different human tumor cell lines (NCI-60) representing leukemia, melanoma, lung cancer, colon cancer, brain cancer, ovary cancer, breast cancer, prostate cancer and kidney cancer. Testing specifics can be found at the National Cancer Institute at http://dtp.nci.nih.gov/branches/btb/ivelsp.html. Compounds 1, 2 and 19 were testing initially at a single dose (10^−5M) in the full cell panel. The results of the one-dose are reported as a mean graph of the percent of the growth of the treated cells. Both growth inhibition (values between 0 and 100) and lethality (values less than 0) are detectable. To evaluate the test results, a value of 100 means no growth inhibition. A value of 40 would mean 60% growth inhibition. A value of zero means no net growth over the course of the experiment. A value of −40 means 40% lethality and a value of −100 means all the cells are dead.

[5] = ATCC66031, Cryptococcus neoformans ATCC 66031, 100 μM
[6] = C. neoformans B4546, minimum concentration for inhibition by 95%
[7] = C. neoformans JEC20, minimum concentration for inhibition by 95%
[8] = C. neoformans VANC-R265, 100 μM

Compound `Clc1nc(Cl)c2sccc2n1` [Compound 1, 2,4-Dichlorothieno[3,2-d]pyrimidine] has an inhibition at 100 µM [1] of less than 43%, an inhibition at 100 µM [2] of 43% and an inhibition at 100 µM [3] of less than 43%. The inhibition at 100 µM (Cryptococcus neoformans; [5]) was 101%, the inhibition at 100 µM (Cryptococcus neoformans; C. neoformans B4546, 100 μM) was 96% and the MIC (Cryptococcus neoformans; [6]) was 34.6 µM (≈ 7.1 µg/mL). For the same compound, the inhibition at 100 µM (Cryptococcus neoformans; C. neoformans JEC20, 100 μM) was 100%, the MIC (Cryptococcus neoformans; [7]) was 16.6 µM (≈ 3.4 µg/mL) and the inhibition at 100 µM (Cryptococcus neoformans; [8]) was 93%. The “cells accumulated in G2/M phase” value (MDA-MB-231 cells; MDA-MB-231, IC80 dose, 48 h) was greater than 70%, the “activity against non-small cell lung and CNS cancers” value [4] was “little or no activity” and the “anti-cancer activity against melanoma, breast, colon and renal cancers” value (“anti-cancer activity against melanoma” below) [4] was “selective activity”.

For `Clc1nc(Cl)c2scc(Br)c2n1` [Compound 2, 7-Bromo-2,4-dichlorothieno[3,2-d]pyrimidine], the inhibition at 100 µM [1] was less than 43%, the inhibition at 100 µM [2] was less than 43% and the inhibition at 100 µM [3] was less than 43%. For the same compound, the inhibition at 100 µM (Cryptococcus neoformans; [5]) was 55%, the inhibition at 100 µM (Cryptococcus neoformans; C. neoformans B4546, 100 μM) was 82% and the MIC (Cryptococcus neoformans; [6]) was 7 µM (≈ 1.99 µg/mL). The inhibition at 100 µM (Cryptococcus neoformans; C. neoformans JEC20, 100 μM) was 91%, the MIC (Cryptococcus neoformans; [7]) was 5.8 µM (≈ 1.65 µg/mL) and the inhibition at 100 µM (Cryptococcus neoformans; [8]) was 67%. The “effect on cell cycle distribution” value (MDA-MB-231 cells; MDA-MB-231, IC80 dose, 48 h) was “no effect”, the “activity against non-small cell lung and CNS cancers” value [4] was “little or no activity” and the “anti-cancer activity against melanoma” value [4] was “selective activity”.

`Clc1nc(Cl)c2[nH]ccc2n1` [Compound 19, 2,4-Dichloropyrrolo[3,2-d]pyrimidine] showed an inhibition at 100 µM [1] of less than 43%, an inhibition at 100 µM [2] of less than 43% and an inhibition at 100 µM [3] of less than 43%. The inhibition at 100 µM (Cryptococcus neoformans; [5]) was less than 43%, the inhibition at 100 µM (Cryptococcus neoformans; C. neoformans B4546, 100 μM) was less than 43% and the inhibition at 100 µM (Cryptococcus neoformans; C. neoformans JEC20, 100 μM) was less than 43%. For the same compound, the inhibition at 100 µM (Cryptococcus neoformans; [8]) was less than 43%, the “cells arrested in G2/M stage” value (MDA-MB-231 cells; 15 μM) was 60% and the “activity against non-small cell lung and CNS cancers” value [4] was “little or no activity”. The “anti-cancer activity against melanoma” value [4] was “selective activity”.
